According to patent US20050130134A1, “Means and methods for monitoring non-nucleoside reverse transcriptase inhibitor antiretroviral therapy and guiding therapeutic decisions in the treatment HIV-AIDS” (ViroLogic, Inc., priority 2000, published 2005):

Legend:
[1] = tested on: RTV-268 patient virus (RT P236L with M41L, D67N, M184V, L210W, T215Y, K219Q); assay: Phenotypic susceptibility assay, RTV-268 (patient 97-268); format: cell-based, HIV-1; details: RTV-268 patient virus compared to reference virus
Procedure: Resistance tests were carried out with resistance test vectors using two host cell types. Resistance test vector viral particles were produced by a first host cell (the resistance test vector host cell) that was prepared by transfecting a packaging host cell with the resistance test vector and the packaging expression vector. The resistance test vector viral particles were then used to infect a second host cell (the target host cell) in which the expression of the indicator gene is measured.
The resistance test vectors containing a functional luciferase gene cassette were constructed and host cells were transfected with the resistance test vector DNA. The resistant test vectors contained patient-derived reverse transcriptase and protease sequences that were either susceptible or resistant to the antiretroviral agents, such as nucleoside reverse transcriptase inhibitors, non-nucleoside reverse transcriptase inhibitors and protease inhibitors. The resistance test vector viral particles produced by transfecting the resistance test vector DNA into host cells, either in the presence or absence of protease inhibitors, were used to infect target host cells grown either in the absence of NRTI or NNRTI or in the presence of increasing concentrations of the drug. The amount of luciferase activity produced in infected target host cells in the presence of drug was compared to the amount of luciferase produced in infected target host cells in the absence of drug. Drug resistance was measured as the amount of drug required to inhibit by 50% the luciferase activity detected in the absence of drug (inhibitory concentration 50%, IC50). The IC50 values were determined by plotting percent drug inhibition vs. log10 drug concentration.
Host cells were seeded in 10-cm-diameter dishes and were transfected several days after plating with resistance test vector plasmid DNA and the envelope expression vector. Transfections were performed using a calcium-phosphate precipitation procedure. The cell culture media containing the DNA precipitate was replaced with fresh medium, from one to 24 hours, after transfection. Cell culture media containing resistance test vector viral particles was harvested one to four days after transfection and was passed through a […] filter before being stored at −80° C. HIV capsid protein (p24) levels in the harvested cell culture media were determined by an EIA method as described by the manufacturer (SIAC; Frederick, Md.). Before infection, target cells (293 and 293/T) were plated in cell culture media. Control infections were performed using cell culture media from mock transfections (no DNA) or transfections containing the resistance test vector plasmid DNA without the envelope expression plasmid. One to three or more days after infection the media was removed and cell lysis buffer (Promega) was added to each well. […] The inhibitory effect of the drug was determined using the following equation: % luciferase inhibition=1-(RLUluc[drug]÷RLUluc)×100 where RLUluc [drug] is the relative light unit of luciferase activity in infected cells in the presence of drug and RLUluc is the Relative Light Unit of luciferase activity in infected cells in the absence of drug. IC50 values were obtained from the sigmoidal curves that were generated from the data by plotting the percent inhibition of luciferase activity vs. the log10 drug concentration.
A resistance test vector was constructed as described in Example 1 from a patient sample designated 97-268. […] Isolation of viral RNA and RT/PCR was used to generate a patient derived segment that comprised viral sequences coding for all of PR and amino acids 1-313 of RT. The patient derived segment was inserted into a indicator gene viral vector to generate a resistance test vector designated RTV-268.

[2] = tested on: T66I integrase site-directed mutant; assay: Phenotypic susceptibility assay, integrase T66I mutated resistance test vector; format: cell-based, HIV; details: T66I integrase mutant, FIG. 10
Procedure: Transfections were performed using a calcium-phosphate precipitation procedure. […] Cell lysates were assayed for luciferase activity (FIG. 3). […] The drug inhibition curves are shown in (FIG. 3).
A resistance test vector containing the threonine to isoleucine mutation at position 66 of the integrase protein (T66I) was constructed and tested using the phenotypic assay described earlier.

[3] = tested on: Tyr181Cys (Y181C) mutation of HIV RT; details: cited from earlier work

Row | Compound | change in susceptibility / resistance [1] | also measured
1 | O=c1[nH]cnc2c1ncn2[C@H]1CC[C@@H](CO)O1 [ddI] | slight shifts in susceptibility | –
2 | O=C(O)C(=O)CC(=O)c1cccn1Cc1ccc(F)cc1 [L-731,988] | – | reduction in susceptibility compared to wild type control RTV [2]: 4.7 fold
3 | Cc1cn([C@H]2C[C@H](N=[N+]=[N-])[C@@H](CO)O2)c(=O)[nH]c1=O [AZT] | significant resistance | –
4 | CCc1cc(NCc2nc3c(Cl)ccc(Cl)c3o2)c(O)nc1C [L-697,661] | – | change in susceptibility [3]: reduced susceptibility
5 | Nc1ccn([C@H]2CC[C@@H](CO)O2)c(=O)n1 [ddC] | slight shifts in susceptibility | –
6 | Nc1ccn([C@@H]2CS[C@H](CO)O2)c(=O)n1 [3TC] | significant resistance | –
7 | CCc1cc(CCc2nc3ccccc3o2)c(=O)[nH]c1C [L-696,229] | – | change in susceptibility [3]: reduced susceptibility
8 | Cc1cn([C@H]2C=C[C@@H](CO)O2)c(=O)[nH]c1=O [d4T] | slight shifts in susceptibility | –
